Our source for the EC50 and IC50 values is US20240190821A1, “SULFONAMIDE SUBSTITUTED N-(1H-INDOL-7-YL)BENZENESULFONAMIDES AND USES THEREOF” (Triana Biomedicines, Inc., priority 2021, published 2024).

Experiment [1] has as its target T1, DCAF15-RBM39 ternary complex (Homo sapiens, UniProt Q14498+Q66K64).
T1 construct: (RRM2)
Put plainly: Compound-induced DCAF15-RBM39 ternary complex formation, AlphaLISA. Format: biochemical. The following applies: AlphaLISA, His-tagged DCAF15 complex and biotin-carrying RBM39; read-out: Ternary-RBM39 (RRM2) EC50. As to the method: Compound-induced DCAF15-RBM39 ternary complex formation was monitored using AlphaLISA® assays (Perkin Elmer, Waltham, MA). […] 9.8 ul of this protein mixture was then mixed with the compounds in the assay plate and incubated for one hour at room temperature. Reaction mixtures with no compounds added were included as negative controls, while a His-tagged and biotinylated GST protein was included to track general assay performance. […] The beads were then added to the assay plate sequentially with incubation at room temperature for 1-2 hours after each addition.

The target of another experiment is DCAF15 (Homo sapiens, UniProt Q66K64). Put plainly: Binary interaction between compounds and DCAF15, HTRF competition assay. Format: binding. The note with it: HTRF competition with Alexa Fluor 647 tracer, His-tagged DCAF15 complex; read-out: DCAF15 IC50. As to the method:
DCAF15 interactions with test compounds were monitored using HTRF competition assays (Cisbio, Bedford, MA). […] These two solutions were mixed and incubated for 15 min at room temperature. 9.8 ul of the tracer solution and 10 ul of the DCAF15/mAb Anti-6His-Eu cryptate Gold mixture were added sequentially to each well in the assay plate. Reaction mixtures with no DCAF15 added were included as […] controls. […] Binding was estimated based on ratiometric analysis and titration curves were generated in GraphPad Prism (7.00, GraphPad, La Jolla, CA).
On the technique in general: In TR-FRET formats the signal depends on donor and acceptor labels being close together.

SMILES strings stand for the structures. pEC50, pIC50: −log10 of the molar value. Where only a bound is given, the exact number is not on record here.

Chain of DCAF15 (Q66K64 whole entry): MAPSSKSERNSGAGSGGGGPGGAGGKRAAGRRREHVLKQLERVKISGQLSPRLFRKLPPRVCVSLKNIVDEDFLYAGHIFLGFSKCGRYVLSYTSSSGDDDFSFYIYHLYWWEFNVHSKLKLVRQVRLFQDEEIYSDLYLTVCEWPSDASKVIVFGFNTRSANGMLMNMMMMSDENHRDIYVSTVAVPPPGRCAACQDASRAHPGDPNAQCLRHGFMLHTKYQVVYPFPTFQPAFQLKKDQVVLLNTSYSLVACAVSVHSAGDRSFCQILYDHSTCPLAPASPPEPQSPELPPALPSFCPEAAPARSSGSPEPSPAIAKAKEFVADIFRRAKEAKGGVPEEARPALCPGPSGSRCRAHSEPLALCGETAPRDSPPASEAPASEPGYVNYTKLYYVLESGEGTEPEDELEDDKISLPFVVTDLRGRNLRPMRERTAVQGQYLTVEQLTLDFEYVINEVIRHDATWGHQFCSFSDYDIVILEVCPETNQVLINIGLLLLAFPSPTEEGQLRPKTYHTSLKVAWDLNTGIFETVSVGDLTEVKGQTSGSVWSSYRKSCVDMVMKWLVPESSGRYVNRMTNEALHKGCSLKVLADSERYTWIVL
Chain of DCAF15 (Q16531 whole entry partner): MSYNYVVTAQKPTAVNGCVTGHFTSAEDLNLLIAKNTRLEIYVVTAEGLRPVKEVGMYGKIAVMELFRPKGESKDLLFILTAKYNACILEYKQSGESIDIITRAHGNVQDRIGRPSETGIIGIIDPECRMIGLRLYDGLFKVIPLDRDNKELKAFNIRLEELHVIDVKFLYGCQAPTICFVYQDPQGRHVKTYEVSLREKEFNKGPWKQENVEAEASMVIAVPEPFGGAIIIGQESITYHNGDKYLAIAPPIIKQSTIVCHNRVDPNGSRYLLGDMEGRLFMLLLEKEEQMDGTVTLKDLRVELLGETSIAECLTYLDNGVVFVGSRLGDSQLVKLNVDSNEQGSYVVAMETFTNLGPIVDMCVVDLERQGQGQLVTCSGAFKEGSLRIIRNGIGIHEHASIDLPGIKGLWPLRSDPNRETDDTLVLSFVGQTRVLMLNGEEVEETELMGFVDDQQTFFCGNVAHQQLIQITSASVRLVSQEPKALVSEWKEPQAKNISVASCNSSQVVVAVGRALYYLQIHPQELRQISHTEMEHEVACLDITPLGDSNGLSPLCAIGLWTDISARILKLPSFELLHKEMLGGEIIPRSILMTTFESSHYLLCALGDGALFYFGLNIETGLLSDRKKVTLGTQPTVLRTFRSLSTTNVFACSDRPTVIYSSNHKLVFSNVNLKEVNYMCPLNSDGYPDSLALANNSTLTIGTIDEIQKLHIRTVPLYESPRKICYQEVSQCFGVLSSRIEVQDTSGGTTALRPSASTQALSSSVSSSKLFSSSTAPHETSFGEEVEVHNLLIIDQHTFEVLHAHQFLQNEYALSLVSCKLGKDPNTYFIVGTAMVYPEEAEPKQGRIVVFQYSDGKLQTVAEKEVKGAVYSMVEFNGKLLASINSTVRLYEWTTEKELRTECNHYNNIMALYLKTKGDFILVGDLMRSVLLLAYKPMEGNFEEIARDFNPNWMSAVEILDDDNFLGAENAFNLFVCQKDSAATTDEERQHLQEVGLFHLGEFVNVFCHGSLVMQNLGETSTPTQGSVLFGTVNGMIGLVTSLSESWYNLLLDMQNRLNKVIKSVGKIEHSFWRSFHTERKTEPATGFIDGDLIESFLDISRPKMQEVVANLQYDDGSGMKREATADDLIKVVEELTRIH
T1 sequence (Q66K64 whole entry): as the sequence (Q66K64 whole entry) above
T1 sequence (Q14498 250-328 limits assumed): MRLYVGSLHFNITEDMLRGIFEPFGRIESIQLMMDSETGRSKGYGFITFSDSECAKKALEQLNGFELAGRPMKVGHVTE
T1 sequence (Q16531 whole entry partner): as the sequence (Q16531 whole entry partner) above

`Cc1ccc(NS(=O)(=O)c2ccc(S(=O)(=O)N(C)C3CCNCC3)cc2)c2[nH]cc(C#N)c12` [Compound 78, N^1-(3-cyano-4-methyl-1H-indol-7-yl)-N^4-methyl-N^4-(piperidin-4-yl) benzene-1,4-disulfonamide]: the pEC50 (usually −log10 of the EC50, conventionally taken in molar units) in experiment [1] was greater than 6.00. The pIC50 (usually −log10 of the IC50, conventionally taken in molar units) on DCAF15 is greater than 5.30.
Consider `O=S(=O)(Nc1ccc(Cl)c2c(Cl)c[nH]c12)c1ccc(C(F)(F)C2CCNCC2)cc1` [Compound 70, N-(3,4-dichloro-1H-indol-7-yl)-4-(difluoro(piperidin-4-yl)methyl)benzene sulfonamide], for which the negative logarithm of the EC50 (pEC50) in experiment [1] was greater than 6.00. The pIC50 at DCAF15 is greater than 5.30.
The like results for `O=C1CCC(NS(=O)(=O)c2ccc(S(=O)(=O)Nc3ccc(Cl)c4c(Cl)c[nH]c34)c(F)c2)CN1` (centres unmarked) [compound 105] were, in that order, greater than 4.70 and greater than 4.70.
The like results for `Cc1ccc(CCNS(=O)(=O)c2ccc(S(=O)(=O)Nc3ccc(Cl)c4c(Cl)c[nH]c34)cc2)o1` [Compound 25, N^1-(3,4-dichloro-1H-indol-7-yl)-N4_ (2-(5-methylfuran-2-yl)ethyl)benzene-1,4-disulfonamide] were, in that order, greater than 4.70 and greater than 4.70.
The like results for `O=S(=O)(Nc1ccc(Cl)c2c(Cl)c[nH]c12)c1ccc(S(=O)(=O)N2CCNCC2)cc1F` [Compound 44, N-(3,4-dichloro-1H-indol-7-yl)-2-fluoro-4-(piperazin-1-ylsulfonyl)benzenesulfonamide] were, in that order, greater than 6.00 and greater than 5.30.
Regarding `Cc1ccc(NS(=O)(=O)c2ccc(S(=O)(=O)N3C[C@H]4C[C@@H](C3)N4)cc2)c2[nH]cc(C#N)c12` [Compound 94, 4-(((1R,5S)-3,6-diazabicyclo[3.1.1]heptan-3-yl)sulfonyl)-N-(3-cyano-4-methyl-1H-indol-7-yl)benzenesulfonamide], the pEC50 in experiment [1] is greater than 6.00. In addition, at DCAF15, the pIC50 is greater than 4.70.
The like results for `CC(C)(C)OC(=O)N1CCC2(CC1)CN(S(=O)(=O)c1ccc(S(=O)(=O)Nc3ccc(Cl)c4c(Cl)c[nH]c34)cc1)CCO2` [Compound 55, tert-butyl 4-((4-(N-(3,4-dichloro-1H-indol-7-yl)sulfamoyl)phenyl)sulfonyl)-1-oxa-4,9-diazaspiro[5.5] undecane-9-carboxylate] were, in that order, greater than 5.30 and greater than 4.70.
The like results for `CCN=S(=O)(c1ccc(S(=O)(=O)Nc2ccc(Cl)c3c(Cl)c[nH]c23)cc1)N1CCNCC1` (centres unmarked) [Compound 69, N-(3,4-dichloro-1H-indol-7-yl)-4-(N-ethylpiperazine-1-sulfonimidoyl)benzenesulfonamide] were, in that order, greater than 6.00 and greater than 4.00.
The like results for `O=S(=O)(NCC1CCN(CCCc2ccccc2)CC1)c1ccc(S(=O)(=O)Nc2ccc(Cl)c3c(Cl)c[nH]c23)cc1` [Compound 10, N^1-(3,4-dichloro-1H-indol-7-yl)-N^4-((1-(3-phenylpropyl)piperidin-4-yl)methyl)benzene-1,4-disulfonamide] were, in that order, greater than 6.00 and greater than 5.30.
Regarding `CN1CCC(S(=O)(=O)c2ccc(S(=O)(=O)Nc3ccc(Cl)c4c(Cl)c[nH]c34)cc2)CC1` [Compound 58, N-(3,4-dichloro-1H-indol-7-yl)-4-((1-methylpiperidin-4-yl)sulfonyl)benzene sulfonamide], the pEC50 in experiment [1] is greater than 6.00. The pIC50 on DCAF15 is greater than 5.30.
Take `CCC(NS(=O)(=O)c1ccc(S(=O)(=O)Nc2ccc(Cl)c3c(Cl)c[nH]c23)cc1)c1ccc2c(c1)OCCO2` (centres unmarked) [Compound 14, N1-(3,4-dichloro-1H-indol-7-yl)-N^4-(1-(2,3-dihydrobenzo[b][1, 4]dioxin-6-yl)propyl)benzene-1,4-disulfonamide]: the pEC50 in experiment [1] was greater than 4.70. At DCAF15, the pIC50 was greater than 4.70.
In the case of `CCN=S(=O)(c1ccc(S(=O)(=O)Nc2ccc(Cl)c3c(Cl)c[nH]c23)cc1)C1CCNCC1` (centres unmarked) [Compound 68, N-(3,4-dichloro-1H-indol-7-yl)-4-(N-ethylpiperidine-4-sulfonimidoyl)benzenesulfonamide], the negative-log EC50 (pEC50) in experiment [1] was greater than 6.00. The negative logarithm of the IC50 (pIC50) on DCAF15 was greater than 5.30.
The like results for `O=S(=O)(Nc1ccc(Cl)c2c(Cl)c[nH]c12)c1ccc(S(=O)(=O)NC2CCOCC2)cc1` [Compound 28, N^1-(3,4-dichloro-1H-indol-7-yl)-N^4-(tetrahydro-2H-pyran-4-yl)benzene-1,4-disulfonamide] were, in that order, greater than 6.00 and greater than 4.00.
`O=S(=O)(Nc1ccc(Cl)c2c(Cl)c[nH]c12)c1ccc(S(=O)(=O)N2CCc3[nH]c(-c4ccccc4)nc3C2)cc1` [Compound 54, N-(3,4-dichloro-1H-indol-7-yl)-4-((2-phenyl-1,4,6,7-tetrahydro-5H-imidazo[4,5-c]pyridin-5-yl)sulfonyl) benzene sulfonamide]: the negative logarithm of the EC50 (pEC50) in experiment [1] is greater than 5.30. Besides, the negative-log IC50 (pIC50) at DCAF15 was greater than 4.00.
The like results for `CN1CCC(S(=O)(=O)Nc2ccc(S(=O)(=O)Nc3ccc(Cl)c4c(Cl)c[nH]c34)cc2)CC1` [Compound 64, N-(4-(N-(3,4-dichloro-1H-indol-7-yl)sulfamoyl)phenyl)-1-methylpiperidine-4-sulfonamide] were, in that order, greater than 5.30 and greater than 4.00.
For the compound `CCCC1CNCCN1S(=O)(=O)c1ccc(S(=O)(=O)Nc2ccc(Cl)c3c(Cl)c[nH]c23)cc1` (centres unmarked) [Compound 47, N-(3,4-dichloro-1H-indol-7-yl)-4-((2-propylpiperazin-1-yl)sulfonyl)benzenesulfonamide], in experiment [1], the negative-log EC50 (pEC50) is greater than 6.00. Further, the negative-log IC50 (pIC50) at DCAF15 is greater than 5.30.
The corresponding values for `N#Cc1ccc(NS(=O)(=O)c2ccc(S(=O)(=O)N3CCNCC3)cc2)c2[nH]cc(Cl)c12` [Compound 88, N-(3-chloro-4-cyano-1H-indol-7-yl)-4-(piperazin-1-ylsulfonyl)benzenesulfonamide] are greater than 6.00 and greater than 4.70.
The like results for `O=C1NCCCCC1NS(=O)(=O)c1ccc(S(=O)(=O)Nc2ccc(Cl)c3c(Cl)c[nH]c23)cc1` (centres unmarked) [Compound 33, N^1-(3,4-dichloro-1H-indol-7-yl)-N^4-(2-oxoazepan-3-yl)benzene-1,4-disulfonamide] were, in that order, greater than 6.00 and greater than 5.30.
The like results for `O=S(=O)(Nc1ccc(Cl)c2c(Cl)c[nH]c12)c1ccc(C2(N3CCNCC3)COC2)cc1` [Compound 60, N-(3,4-dichloro-1H-indol-7-yl)-4-(3-(piperazin-1-yl)oxetan-3-yl)benzenesulfonamide] were, in that order, greater than 6.00 and greater than 5.30.
`N#Cc1cc(S(=O)(=O)Nc2ccc(Cl)c3c(Cl)c[nH]c23)ccc1S(=O)(=O)N1CCNCC1` [Compound 43, 3-cyano-N-(3,4-dichloro-1H-indol-7-yl)-4-(piperazin-1-ylsulfonyl)benzenesulfonamide]: in experiment [1], the negative logarithm of the EC50 (pEC50) is greater than 6.00. Further, the pIC50 on DCAF15 was greater than 5.30.
With `O=S(=O)(Nc1ccc(Cl)c2cc[nH]c12)c1ccc(S(=O)(=O)N2CCNCC2)cc1` [Compound 87, N-(4-chloro-1H-indol-7-yl)-4-(piperazin-1-ylsulfonyl)benzenesulfonamide], the pEC50 in experiment [1] is greater than 5.30. Also, the negative-log IC50 (pIC50) at DCAF15 was greater than 4.70.
The like results for `Cc1ccnc(C(NS(=O)(=O)c2ccc(S(=O)(=O)Nc3ccc(Cl)c4c(Cl)c[nH]c34)cc2)C2CC2)c1` (centres unmarked) [Compound 18, N^1-(cyclopropyl(4-methylpyridin-2-yl)methyl)-N^4-(3,4-dichloro-1H-indol-7-yl)benzene-1,4-disulfonamide] were, in that order, greater than 5.30 and greater than 4.70.
On to `O=S(=O)(Nc1ccc(Cl)c2c(Cl)c[nH]c12)c1ccc(S(=O)(=O)N2CCC(O)CC2)cc1` [Compound 38, N-(3,4-dichloro-1H-indol-7-yl)-4-((4-hydroxypiperidin-1-yl)sulfonyl)benzene sulfonamide], for which, in experiment [1], the negative-log EC50 (pEC50) was greater than 6.00. Besides, the pIC50 at DCAF15 was greater than 5.30.
The like results for `Cc1cnc(CNS(=O)(=O)c2ccc(S(=O)(=O)Nc3ccc(Cl)c4c(Cl)c[nH]c34)cc2)cn1` [Compound 19, N^1-(3,4-dichloro-1H-indol-7-yl)-N4_ ((5-methylpyrazin-2-yl)methyl)benzene-1,4-disulfonamide] were, in that order, greater than 6.00 and greater than 5.30.
The corresponding values for `O=S(=O)(Nc1ccc(Cl)c2c(Cl)c[nH]c12)c1ccc(S(=O)(=O)N2CCC(n3ccnn3)C2)cc1` (centres unmarked) [Compound 36, 4-((3-(1H-1,2,3-triazol-1-yl)pyrrolidin-1-yl)sulfonyl)-N-(3,4-dichloro-1H-indol-7-yl)benzenesulfonamide] are greater than 5.30 and greater than 5.30.
The like results for `O=S(=O)(Nc1ccc(Cl)c2c(Cl)c[nH]c12)c1ccc(C2(N3CCNCC3)CC2)cc1` [Compound 59, N-(3,4-dichloro-1H-indol-7-yl)-4-(1-(piperazin-1-yl)cyclopropyl) benzenesulfonamide] were, in that order, greater than 6.00 and greater than 5.30.
Turning to `Cn1cc(-c2ccc(S(=O)(=O)Nc3ccc(Cl)c4c(Cl)c[nH]c34)cc2)cn1` [Compound 61, N-(3,4-dichloro-1H-indol-7-yl)-4-(1-methyl-1H-pyrazol-4-yl)benzenesulfonamide], in experiment [1], the negative logarithm of the EC50 (pEC50) is greater than 5.30. The pIC50 at DCAF15 is greater than 5.30.
Regarding `O=S(=O)(Nc1ccc(Cl)c2c(Cl)c[nH]c12)c1ccc(S(=O)(=O)N2CCCNCC2)cc1` [Compound 52, 4-((1,4-diazepan-1-yl)sulfonyl)-N-(3,4-dichloro-1H-indol-7-yl)benzene sulfonamide], in experiment [1], the pEC50 is greater than 6.00. At DCAF15, the pIC50 is greater than 5.30.
